Key:
[1] = system: C57BL/6 mice with KRN serum transfer-induced arthritis; assay: KRN serum transfer induced arthritis (clinical scores and histology); format: in vivo, mouse; conditions: KRN serum induced arthritis
Method: Seven to eight week-old C57BL/6 male mice (Jackson Laboratories) received 200 μl of KRN arthritogenic serum (Ji et al, “Genetic Influences on the End-Stage Effector Phase of Arthritis,” J. Exp. Med. 194 (3):321-330 (2001), which is hereby incorporated by reference in its entirety) (KBN TCR transgenic mice were a kind gift from Christophe Benoist and have been intercrossed with NOD at the Feinstein Institute to generate KRN mice and the arthritogenic serum) intraperitoneal (IP) on day zero (D0) and day 2 (D2). After the onset of clear ankle arthritis (day 3; D3), mice were started on O1821 10 mg/Kg IP BID or control vehicle (DMSO in saline solution). Arthritis severity was scored according to the system reported by Jirholt et al., “Genetic Linkage Analysis of Collagen-Induced Arthritis in the Mouse,” Eur. J. Immunol. 28 (10):3321-3328 (1998), which is hereby incorporated by reference in its entirety, which includes a number of involved joints and a degree of inflammation (swelling/redness) in a scale of 0-12 per mouse per day.
[…] Histology slides were scored without knowledge of treatment and according to a comprehensive scoring system previously reported that includes parameters for synovial hyperplasia, inflammatory cell infiltration, and bone and cartilage erosions (Brenner et al., “The Non-MHC Quantitative Trait Locus Cia10 Contains a Major Arthritis Gene and Regulates Disease Severity, Pannus Formation and Joint Damage,” Arthritis Rheum. 52 (1):322-332 (2005), which is hereby incorporated by reference in its entirety).

[2] = biological target: T1, Trpv2 (Rattus norvegicus, UniProt Q9WUD2); assay: Intracellular calcium influx (Fluo-4 NW) in DA FLS; format: cell-based; parameters: endogenous in cells; host or cells: fibroblast-like synoviocytes (FLS) from DA rats; conditions: measured over 200 seconds; compared with O1821
T1 sequence (Q9WUD2 1-761): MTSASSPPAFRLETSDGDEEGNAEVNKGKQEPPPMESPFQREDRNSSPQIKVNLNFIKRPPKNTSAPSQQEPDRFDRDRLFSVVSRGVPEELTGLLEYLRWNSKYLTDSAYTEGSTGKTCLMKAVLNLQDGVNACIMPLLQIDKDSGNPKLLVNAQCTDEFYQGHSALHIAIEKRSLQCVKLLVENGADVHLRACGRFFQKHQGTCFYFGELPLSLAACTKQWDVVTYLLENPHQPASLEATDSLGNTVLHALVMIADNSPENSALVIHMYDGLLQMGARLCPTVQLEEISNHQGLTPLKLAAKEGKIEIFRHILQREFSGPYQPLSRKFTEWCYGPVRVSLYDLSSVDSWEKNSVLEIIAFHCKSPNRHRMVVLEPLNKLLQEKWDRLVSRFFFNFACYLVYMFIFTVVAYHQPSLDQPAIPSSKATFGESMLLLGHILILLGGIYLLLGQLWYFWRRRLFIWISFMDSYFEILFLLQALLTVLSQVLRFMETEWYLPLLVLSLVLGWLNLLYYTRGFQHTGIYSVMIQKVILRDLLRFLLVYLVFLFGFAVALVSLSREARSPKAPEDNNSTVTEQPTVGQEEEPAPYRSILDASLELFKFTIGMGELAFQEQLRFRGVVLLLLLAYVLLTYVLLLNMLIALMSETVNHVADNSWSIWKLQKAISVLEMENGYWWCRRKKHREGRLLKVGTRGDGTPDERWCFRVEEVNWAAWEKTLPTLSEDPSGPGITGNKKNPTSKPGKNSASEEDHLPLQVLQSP
Method: Intracellular calcium influx was measured using the Fluo-4 NW calcium assay kit (Molecular Probes/Invitrogen) according to the manufacturer's instructions, as previously described (Laragione et al., “CXCL10 and its Receptor CXCR3 Regulate Synovial Fibroblast Invasion in Rheumatoid Arthritis,” Arthritis Rheum. 63 (11):3274-3283 (2011), which is hereby incorporated by reference in its entirety). Briefly, DA FLS were plated at a density of 4,500 cells/well in a 96-well plate (100 μl volume of complete media per well). After cell adhesion the media was changed to serum-free media for overnight culture. Serum-free media was then replaced with 50 μl of dye loading solution, followed by incubation at 37° C. for 30 minutes and a baseline fluorimetric reading. Then, O1821, LER13, or vehicle were added to their respective wells at different concentrations and fluorescence read immediately in a Fluoroskan Ascent Microplate Fluorometer (Thermo Scientific) with settings appropriate for excitation at 494 nm and emission at 516 nm.

[3] = system: FLS; assay: FLS invasion, focused library screen (Table 1); format: cell-based; conditions: evaluated over 24 hours in vitro
Method: The in vitro invasiveness of FLS was assayed in a transwell system using Matrigel-coated inserts (BD Biosciences, Franklin Lakes, N.J.), as previously described (Tolboom et al., “Invasiveness of Fibroblast-Like Synoviocytes is an Individual Patient Characteristic Associated with the Rate of Joint Destruction in Patients with Rheumatoid Arthritis,” Arthritis Rheum. 52 (7):1999-2002 (2005); Laragione et al., “The Arthritis Severity Locus Cia5d is a Novel Genetic Regulator of the Invasive Properties of Synovial Fibroblasts,” Arthritis Rheum. 58 (8):2296-2306 (2008), which are hereby incorporated by reference in their entirety). Briefly, 70-80% confluent cells were harvested by trypsin-EDTA digestion, and re-suspended at 2.0×10^4 cells in 500 μl of serum-free DMEM. Cells were placed in the upper compartment of the Matrigel-coated inserts. Where indicated, O1821, LER13, or vehicle was added to the upper chamber. The lower compartment was filled with complete media and the plates were incubated at 37° C. for 24 hours. After 24 hours the upper surface of the insert was wiped with cotton-swabs to remove non-invading cells and the Matrigel layer. The opposite side of the insert was stained with Crystal Violet (Sigma) and the total number of cells that invaded through Matrigel counted at 100× magnification. Experiments were done in duplicate.

[4] = system: DBA1/J mice with collagen-induced arthritis; assay: Collagen induced arthritis (CIA); format: in vivo, mouse; conditions: for Arthritis severity (CIA): collagen-induced arthritis
Text: CIA was induced in 8-week-old male DBA1/J mice (Jackson Laboratories) using a standard protocol (Courtenay et al., “Immunisation Against Heterologous Type II Collagen Induces Arthritis in Mice,” Nature 283 (5748):666-668 (1980); Nagler-Anderson et al., “Suppression of Type II Collagen-Induced Arthritis by Intragastric Administration of Soluble Type II Collagen,” Proc. Natl. Acad. Sci. U.S.A. 83 (19):7443-7446 (1986), which are hereby incorporated by reference in their entirety). Briefly, bovine type II collagen (Chondrex, Redmond, Wash.) was dissolved overnight in acetic acid 0.1 N and then homogenized at 1:1 with Complete Freund's Adjuvant (CFA, Difco, Detroit, Mich.). Anesthetized mice were injected intradermally with 100 μg of type II collagen emulsified in CFA in the tail. The new Trpv2 agonist LER13 (10 mg/Kg) or control vehicle (PBS 50%, PEG300 40%, PG 5%, PS80 5%) was started on day 10 (D10) and administered intra-peritoneally every-other-day (from D10 until day 55). On day 21 (D21), mice received a booster injection of 100 μg of type II collagen in incomplete Freund's adjuvant. Clinical signs of arthritis were evident on day 24 (D24).
Arthritis severity in CIA mice was scored using a modified scoring system based on Jirholt et al., “Genetic Linkage Analysis of Collagen-Induced Arthritis in the Mouse,” Eur. J. Immunol. 28 (10):3321-3328 (1998), which is hereby incorporated by reference in its entirety. Briefly, the modified scoring system ranged from 0-16 per mouse per day and included a functional component of disease severity (non-weight bearing) in the maximum score of 4 per paw. The arthritis severity index (ASI), which is the sum of all scores obtained during the observation period, was used to compare treatment groups as it provides a comprehensive assessment of arthritis severity over time, and correlates with histologic damage (Brenner et al., “The Non-MHC Quantitative Trait Locus Cia10 Contains a Major Arthritis Gene and Regulates Disease Severity, Pannus Formation and Joint Damage,” Arthritis Rheum. 52 (1):322-332 (2005); Brenner et al., “The Non-MHC Quantitative Trait Locus Cia5 Contains Three Major Arthritis Genes that Differentially Regulate Disease Severity, Pannus Formation, and Joint Damage in Collagen- and Pristane-Induced Arthritis,” J. Immunol. 174 (12):7894-7903 (2005), which are hereby incorporated by reference in their entirety).

Molecule	Calcium influx [2]	other results
C=C(C)[C@@H]1CCC(C)=C[C@H]1c1c(O)cc(C)cc1O [Compound 1]	increased	Arthritis severity (KRN) [1]: Protective KRN; FLS invasion decreased by [3]: Decreased by 30%
C=C(C)[C@@H]1CCC(C)=C[C@H]1c1c(C)cc(O)cc1O [Compound 2]	increased (like DMSO, but less than O1821)	–
C=C(C)[C@H]1CCC(C)=CC1c1c(O)c(C2C=C(C)CC[C@H]2C(=C)C)c(O)c([C@@H]2C=C(C)CC[C@H]2C(=C)C)c1O (some centres unmarked) [Compound 3]	increased (20% greater than O1821)	–
C=C(C)[C@H]1CCC(C)=CC1c1c(O)cc(O)c([C@@H]2C=C(C)CC[C@H]2C(=C)C)c1O (some centres unmarked) [Compound 4]	increased (25% less than O1821)	–
C=C(C)[C@@H]1CCC(C)=C[C@H]1c1c(O)cc(O)cc1O [Compound 5]	increased (25% less than O1821)	–
C=C(C)[C@H]1CCC(C)=CC1c1c(/C=C/c2ccc(O)cc2)cc(O)c([C@@H]2C=C(C)CC[C@H]2C(=C)C)c1O (some centres unmarked) [Compound 6]	increased (similar to O1821)	–
C=C(C)[C@@H]1CCC(C)=C[C@H]1c1c(O)cc(/C=C/c2ccc(O)cc2)cc1O [Compound 7]	increased (50% less than O1821)	–
C=C(C)[C@H]1CCC(C)=CC1c1c(O)cc(O)cc1/C=C/c1ccc(O)cc1 (some centres unmarked) [Compound 8]	increased (10% less than O1821)	–
C=C(C)[C@@H]1CCC(C)=CC1c1c(O)cc(F)cc1O (some centres unmarked) [Compound 9]	increased (similar to O1821)	–
C=C(C)[C@@H]1CCC(C)=CC1c1c(O)cc(O)cc1F (some centres unmarked) [Compound 10]	increased (20% greater than O1821)	Arthritis severity (KRN) [1]: Not protective KRN and CIA; Arthritis severity (CIA) [4]: Not protective KRN and CIA; FLS invasion decreased by [3]: Decreased by 100%
C=C(C)[C@@H]1CCC(C)=CC1c1c(O)cc(O)cc1Cl (some centres unmarked) [Compound 11]	increased (20% greater than O1821)	–
C=C(C)[C@@H]1CCC(C)=CC1c1c(O)cc(Cl)cc1O (some centres unmarked) [Compound 12]	increased (20% greater than O1821)	Arthritis severity (CIA) [4]: Not protective in CIA; FLS invasion decreased by [3]: Decreased by 100%
C#Cc1cc(O)cc(O)c1C1C=C(C)CC[C@H]1C(=C)C (some centres unmarked) [Compound 14]	increased (20% greater than O1821)	Arthritis severity (KRN) [1]: Not protective in KRN; FLS invasion decreased by [3]: Decreased by 100%
(1R,2″R,2R,2″S)-6′-ethynyl-5,5″-dimethyl-2,2″-di(prop-1-en-2-yl)-1,1″,2,2″,3,3″,4,4″-octahydro-[1,1′:3′,1″-terphenyl]-2′,4′-diol [Compound 13]	–	Arthritis severity index (ASI), mean±S.D. ([4]; 10 mg/Kg IP every-other-day from D10, scoring to D76): 40.7±36.8

— patent US20200277246A1, “TREATMENT METHOD, COMPOUNDS, AND METHOD OF INCREASING TRPV2 ACTIVITY” (THE FEINSTEIN INSTITUTE FOR MEDICAL RESEARCH, priority 2015, published 2020)
